Results: ChEMBL document CHEMBL5303765, “Data for DCP probe BAY-7081” (2023)

Key:
[1] = target: AP2-associated protein kinase 1 (Homo sapiens) (UniProt Q2M2I8); assay: AAK1 SGC Tm panel (DSF); conditions: for ΔTm: Compound concentration 10.0 uM
[2] = target: T1, Bone morphogenetic protein receptor type-2 (Homo sapiens) (UniProt Q13873); assay: BMPR2 SGC Tm panel (DSF); conditions: for ΔTm: Compound concentration 10.0 uM
T1 sequence (whole entry): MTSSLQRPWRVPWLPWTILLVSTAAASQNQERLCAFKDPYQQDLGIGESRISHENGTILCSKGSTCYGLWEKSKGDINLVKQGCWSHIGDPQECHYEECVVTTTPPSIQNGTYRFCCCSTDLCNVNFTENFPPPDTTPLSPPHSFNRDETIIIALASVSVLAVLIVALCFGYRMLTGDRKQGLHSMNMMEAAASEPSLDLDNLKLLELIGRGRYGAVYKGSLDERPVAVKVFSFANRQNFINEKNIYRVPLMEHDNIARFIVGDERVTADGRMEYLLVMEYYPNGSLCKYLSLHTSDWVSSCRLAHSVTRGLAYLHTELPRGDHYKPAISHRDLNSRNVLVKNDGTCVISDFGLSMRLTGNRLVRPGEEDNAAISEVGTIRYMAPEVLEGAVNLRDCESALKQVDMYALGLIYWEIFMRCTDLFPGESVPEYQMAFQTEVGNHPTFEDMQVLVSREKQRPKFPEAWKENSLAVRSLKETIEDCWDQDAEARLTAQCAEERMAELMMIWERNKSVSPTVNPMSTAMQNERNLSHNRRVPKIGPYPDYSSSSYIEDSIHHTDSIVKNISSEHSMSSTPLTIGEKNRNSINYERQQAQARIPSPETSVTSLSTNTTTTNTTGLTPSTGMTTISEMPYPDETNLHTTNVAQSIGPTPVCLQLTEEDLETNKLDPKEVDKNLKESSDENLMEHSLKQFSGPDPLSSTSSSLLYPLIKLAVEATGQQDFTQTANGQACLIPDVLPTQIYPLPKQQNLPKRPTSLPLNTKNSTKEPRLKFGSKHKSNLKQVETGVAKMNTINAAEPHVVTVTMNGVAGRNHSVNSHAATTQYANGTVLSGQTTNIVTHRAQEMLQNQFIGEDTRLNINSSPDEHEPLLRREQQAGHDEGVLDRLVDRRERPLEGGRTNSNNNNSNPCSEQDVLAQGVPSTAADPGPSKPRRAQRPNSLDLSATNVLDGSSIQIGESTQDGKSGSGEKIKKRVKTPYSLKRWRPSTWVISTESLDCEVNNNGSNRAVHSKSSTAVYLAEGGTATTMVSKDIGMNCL

[3] = target: Death-associated protein kinase 1 (Homo sapiens) (UniProt P53355); assay: DAPK1 SGC Tm panel (DSF); conditions: for ΔTm: Compound concentration 10.0 uM
Chain of Death-associated protein kinase 1 (Homo sapiens) (P53355 whole entry, looked up): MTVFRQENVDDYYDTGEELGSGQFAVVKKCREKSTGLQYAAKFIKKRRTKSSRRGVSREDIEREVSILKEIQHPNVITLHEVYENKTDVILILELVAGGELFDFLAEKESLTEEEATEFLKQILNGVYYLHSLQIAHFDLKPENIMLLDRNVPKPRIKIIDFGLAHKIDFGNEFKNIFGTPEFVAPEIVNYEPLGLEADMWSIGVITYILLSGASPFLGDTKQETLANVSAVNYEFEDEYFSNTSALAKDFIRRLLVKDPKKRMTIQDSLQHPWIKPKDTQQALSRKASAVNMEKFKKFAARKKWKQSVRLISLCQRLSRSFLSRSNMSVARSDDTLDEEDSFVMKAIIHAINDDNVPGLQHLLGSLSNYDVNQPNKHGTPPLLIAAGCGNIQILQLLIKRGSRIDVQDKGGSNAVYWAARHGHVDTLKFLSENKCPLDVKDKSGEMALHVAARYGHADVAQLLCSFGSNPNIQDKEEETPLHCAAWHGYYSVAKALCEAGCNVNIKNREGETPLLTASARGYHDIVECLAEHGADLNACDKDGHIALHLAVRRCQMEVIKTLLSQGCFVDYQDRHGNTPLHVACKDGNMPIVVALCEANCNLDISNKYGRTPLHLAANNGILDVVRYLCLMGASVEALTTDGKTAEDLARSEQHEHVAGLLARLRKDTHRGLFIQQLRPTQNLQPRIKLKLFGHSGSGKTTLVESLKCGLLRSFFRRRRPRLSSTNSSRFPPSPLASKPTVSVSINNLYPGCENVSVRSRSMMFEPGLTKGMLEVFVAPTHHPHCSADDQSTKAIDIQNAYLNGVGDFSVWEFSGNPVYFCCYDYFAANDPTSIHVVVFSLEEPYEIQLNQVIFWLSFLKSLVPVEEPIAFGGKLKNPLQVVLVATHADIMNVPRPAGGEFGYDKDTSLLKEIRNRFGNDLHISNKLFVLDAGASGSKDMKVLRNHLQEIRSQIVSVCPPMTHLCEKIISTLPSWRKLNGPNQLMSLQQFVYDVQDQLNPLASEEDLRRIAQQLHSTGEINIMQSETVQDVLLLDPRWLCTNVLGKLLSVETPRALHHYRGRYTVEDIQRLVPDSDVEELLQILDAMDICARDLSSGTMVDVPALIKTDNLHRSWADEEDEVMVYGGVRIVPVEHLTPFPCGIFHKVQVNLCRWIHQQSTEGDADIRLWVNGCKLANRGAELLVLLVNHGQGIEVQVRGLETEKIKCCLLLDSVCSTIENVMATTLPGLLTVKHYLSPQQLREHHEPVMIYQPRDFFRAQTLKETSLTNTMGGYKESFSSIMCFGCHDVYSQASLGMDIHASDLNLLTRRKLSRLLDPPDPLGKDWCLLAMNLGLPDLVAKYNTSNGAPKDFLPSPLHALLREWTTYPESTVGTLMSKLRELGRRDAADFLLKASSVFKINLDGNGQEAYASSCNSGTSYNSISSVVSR

[4] = target: T2, Myotonin-protein kinase (Homo sapiens) (UniProt Q09013); assay: DMPK1 SGC Tm panel (DSF); conditions: for ΔTm: Compound concentration 10.0 uM
T2 sequence (whole entry): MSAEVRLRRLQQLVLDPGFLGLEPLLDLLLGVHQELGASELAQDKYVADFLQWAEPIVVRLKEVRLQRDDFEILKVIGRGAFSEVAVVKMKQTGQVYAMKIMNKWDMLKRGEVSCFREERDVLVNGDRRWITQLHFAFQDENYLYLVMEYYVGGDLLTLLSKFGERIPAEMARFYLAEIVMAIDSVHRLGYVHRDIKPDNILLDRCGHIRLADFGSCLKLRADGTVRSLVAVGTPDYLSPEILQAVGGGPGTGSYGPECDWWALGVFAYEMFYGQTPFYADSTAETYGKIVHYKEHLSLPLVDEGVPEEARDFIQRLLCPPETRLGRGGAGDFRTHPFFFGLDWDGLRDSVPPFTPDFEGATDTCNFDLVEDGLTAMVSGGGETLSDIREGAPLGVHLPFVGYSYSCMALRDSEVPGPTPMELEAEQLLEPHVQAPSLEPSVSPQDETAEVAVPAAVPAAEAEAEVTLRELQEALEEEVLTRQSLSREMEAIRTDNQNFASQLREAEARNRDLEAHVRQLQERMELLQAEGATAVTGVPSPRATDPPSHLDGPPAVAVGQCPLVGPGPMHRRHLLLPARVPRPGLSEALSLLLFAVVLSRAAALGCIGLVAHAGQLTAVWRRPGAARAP

[5] = target: T3, Dual specificity mitogen-activated protein kinase kinase 4 (Homo sapiens) (UniProt P45985); assay: MAP2K4 SGC Tm panel (DSF); conditions: for ΔTm: Compound concentration 10.0 uM
T3 sequence (whole entry): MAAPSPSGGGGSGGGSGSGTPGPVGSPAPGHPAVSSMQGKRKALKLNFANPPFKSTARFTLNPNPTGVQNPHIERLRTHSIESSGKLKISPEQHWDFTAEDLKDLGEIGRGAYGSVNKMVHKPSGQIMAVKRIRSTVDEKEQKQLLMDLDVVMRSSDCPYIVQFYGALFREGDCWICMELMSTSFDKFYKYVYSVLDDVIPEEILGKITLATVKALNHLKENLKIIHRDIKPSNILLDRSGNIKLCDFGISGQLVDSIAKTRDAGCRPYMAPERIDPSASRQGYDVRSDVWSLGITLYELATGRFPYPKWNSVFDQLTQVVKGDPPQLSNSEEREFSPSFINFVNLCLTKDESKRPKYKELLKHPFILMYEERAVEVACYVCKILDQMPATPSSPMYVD

[6] = target: Mitogen-activated protein kinase 14 (Homo sapiens) (UniProt Q16539); assay: MAPK14 SGC Tm panel (DSF); conditions: for ΔTm: Compound concentration 10.0 uM
Chain of Mitogen-activated protein kinase 14 (Homo sapiens) (Q16539 whole entry): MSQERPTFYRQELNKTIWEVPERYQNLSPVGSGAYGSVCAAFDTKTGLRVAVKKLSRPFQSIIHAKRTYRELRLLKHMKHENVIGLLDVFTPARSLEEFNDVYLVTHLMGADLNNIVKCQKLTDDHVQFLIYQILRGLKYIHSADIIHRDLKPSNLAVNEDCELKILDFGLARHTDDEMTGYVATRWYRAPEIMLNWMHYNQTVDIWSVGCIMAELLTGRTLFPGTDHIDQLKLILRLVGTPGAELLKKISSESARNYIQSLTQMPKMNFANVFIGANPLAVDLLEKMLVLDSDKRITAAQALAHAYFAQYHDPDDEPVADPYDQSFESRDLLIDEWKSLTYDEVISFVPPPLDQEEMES

[7] = target: T4, Serine/threonine-protein kinase 3 (Homo sapiens) (UniProt Q13188); assay: STK3 SGC Tm panel (DSF); conditions: for ΔTm: Compound concentration 10.0 uM
T4 sequence (whole entry): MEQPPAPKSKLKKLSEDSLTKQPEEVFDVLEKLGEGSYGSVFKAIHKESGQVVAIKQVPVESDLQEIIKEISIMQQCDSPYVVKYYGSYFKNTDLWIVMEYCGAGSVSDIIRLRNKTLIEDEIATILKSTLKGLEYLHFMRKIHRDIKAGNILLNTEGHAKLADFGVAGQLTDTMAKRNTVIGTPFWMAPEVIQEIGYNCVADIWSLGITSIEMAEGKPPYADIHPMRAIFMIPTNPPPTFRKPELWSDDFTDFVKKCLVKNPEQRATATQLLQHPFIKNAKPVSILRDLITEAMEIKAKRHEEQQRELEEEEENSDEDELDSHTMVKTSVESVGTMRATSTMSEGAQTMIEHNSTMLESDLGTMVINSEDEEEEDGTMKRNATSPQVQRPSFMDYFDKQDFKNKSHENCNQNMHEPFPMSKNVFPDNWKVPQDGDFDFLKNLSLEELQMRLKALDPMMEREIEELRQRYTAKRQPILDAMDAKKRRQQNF

[8] = target: Beta-1 adrenergic receptor (Homo sapiens) (UniProt P08588); conditions: Compound concentration 10.0 uM
Chain of Beta-1 adrenergic receptor (Homo sapiens) (P08588 whole entry, looked up): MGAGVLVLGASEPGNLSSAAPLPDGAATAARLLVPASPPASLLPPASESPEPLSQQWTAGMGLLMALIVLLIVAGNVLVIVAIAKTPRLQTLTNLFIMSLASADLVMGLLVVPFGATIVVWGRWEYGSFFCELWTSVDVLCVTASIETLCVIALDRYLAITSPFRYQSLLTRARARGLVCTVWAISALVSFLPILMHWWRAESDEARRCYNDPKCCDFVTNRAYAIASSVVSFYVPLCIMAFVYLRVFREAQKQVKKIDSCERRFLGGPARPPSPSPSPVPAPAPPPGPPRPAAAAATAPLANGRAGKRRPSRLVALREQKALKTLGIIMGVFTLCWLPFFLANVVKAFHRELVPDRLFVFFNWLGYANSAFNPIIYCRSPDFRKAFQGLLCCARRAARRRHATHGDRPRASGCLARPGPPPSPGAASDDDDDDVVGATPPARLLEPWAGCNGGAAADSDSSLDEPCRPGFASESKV

Chain of AP2-associated protein kinase 1 (Homo sapiens) (Q2M2I8 whole entry, looked up): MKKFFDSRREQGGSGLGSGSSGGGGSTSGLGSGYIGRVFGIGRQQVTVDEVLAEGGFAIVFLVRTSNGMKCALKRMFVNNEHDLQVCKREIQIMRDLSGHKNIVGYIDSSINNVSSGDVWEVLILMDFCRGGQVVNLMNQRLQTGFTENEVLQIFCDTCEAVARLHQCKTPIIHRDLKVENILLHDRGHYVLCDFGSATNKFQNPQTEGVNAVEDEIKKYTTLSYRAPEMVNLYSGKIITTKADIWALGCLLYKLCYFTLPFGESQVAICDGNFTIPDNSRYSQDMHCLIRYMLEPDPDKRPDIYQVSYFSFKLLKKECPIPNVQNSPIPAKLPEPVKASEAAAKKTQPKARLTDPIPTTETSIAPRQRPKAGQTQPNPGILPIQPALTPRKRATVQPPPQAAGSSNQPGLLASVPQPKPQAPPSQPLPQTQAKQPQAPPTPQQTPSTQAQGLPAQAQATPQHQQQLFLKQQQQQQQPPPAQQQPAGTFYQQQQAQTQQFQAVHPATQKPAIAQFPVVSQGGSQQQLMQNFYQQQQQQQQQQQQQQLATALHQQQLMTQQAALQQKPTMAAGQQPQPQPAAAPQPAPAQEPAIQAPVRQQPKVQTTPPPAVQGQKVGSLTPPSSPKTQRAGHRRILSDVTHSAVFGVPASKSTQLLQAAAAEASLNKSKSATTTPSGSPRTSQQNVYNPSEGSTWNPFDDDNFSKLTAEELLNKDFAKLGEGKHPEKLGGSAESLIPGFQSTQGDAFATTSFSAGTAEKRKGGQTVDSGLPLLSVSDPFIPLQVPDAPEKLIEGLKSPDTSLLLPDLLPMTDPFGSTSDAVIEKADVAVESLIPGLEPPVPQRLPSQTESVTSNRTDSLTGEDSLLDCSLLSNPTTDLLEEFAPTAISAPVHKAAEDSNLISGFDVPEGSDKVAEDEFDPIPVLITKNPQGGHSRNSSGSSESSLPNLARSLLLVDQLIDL

Q: How did the delta Tm Staurosporine positive control [1] turn out when `CCC[C@@H]1CNCc2c1[nH]c(=O)c(C#N)c2N1CCC2(CC1)CC2` was run?
A: 12.4

Q: And the ΔTm [1]?
A: -0.478

Q: And the delta Tm Staurosporine positive control [2]?
A: 3.02

Q: What about the ΔTm [2] of the same compound?
A: 0.0735

Q: What about the delta Tm Staurosporine positive control [3] of the same compound?
A: 9.84

Q: What about the ΔTm [3] of the same compound?
A: -0.225

Q: What about the delta Tm Staurosporine positive control [4] of the same compound?
A: 9.38

Q: What about the ΔTm [4] of the same compound?
A: -0.138

Q: What about the delta Tm Staurosporine positive control [5] of the same compound?
A: 11.8

Q: And the ΔTm [5]?
A: -0.34

Q: And the delta Tm Staurosporine positive control [6]?
A: 0.178

Q: What about the ΔTm [6] of the same compound?
A: -0.46

Q: What about the delta Tm Staurosporine positive control [7] of the same compound?
A: 16.5

Q: What about the ΔTm [7] of the same compound?
A: -0.767

Q: And the inhibition [8]?
A: 5.97%

Q: Which results are given for `CCC[C@H]1CNCc2c1[nH]c(=O)c(C#N)c2N1CCC2(CC1)CC2`?
A: delta Tm Staurosporine positive control [1]: 12.4; ΔTm [1]: -0.482; delta Tm Staurosporine positive control [2]: 3.02; ΔTm [2]: 0.146; delta Tm Staurosporine positive control [3]: 9.84; ΔTm [3]: 0.2; delta Tm Staurosporine positive control [4]: 9.38; ΔTm [4]: -0.0275; delta Tm Staurosporine positive control [5]: 11.8; ΔTm [5]: -0.306; delta Tm Staurosporine positive control [6]: 0.178; ΔTm [6]: -0.473; delta Tm Staurosporine positive control [7]: 16.5; ΔTm [7]: -0.737; inhibition [8]: -8.08%
